Drawing on patent US20250289812A1, “COMPOUND FOR TREATING THROMBOTIC DISEASES” (SHANGHAI INSTITUTE OF MATERIA MEDICA, CHINESE ACADEMY OF …, priority 2020, published 2025), this text covers Kd and minimal effective concentration for 45 compounds.

The target in assay [1] is Src kinase SH3 domain protein (Homo sapiens (Human), UniProt P12931). Nature of the assay: Surface plasmon resonance (SPR) determination of dissociation constants with SH3 protein. The class given is binding. The settings on record: SH3 protein coupled to CM5 chip. On the procedure:
1. Experimental method: Surface plasmon resonance test was carried out on BIACORE T200 instrument (GE Company). Fresh purified grade Src kinase SH3 domain protein (concentration 2 mg/ml) was diluted to 0.1 mg/ml with 10 mM CH3COONa (pH 4.2) and then SH3 protein was coupled to the CM5 chip by standard amino coupling methods. The compounds of the invention were diluted in a gradient using a buffer solution (20 mM Tris-HCl, PH 8.0, 100 mM NaCl) for 60 seconds and dissociated for 120 seconds at a flow rate of […], respectively. The changes in response values over time were recorded and analyzed by the BIA Evaluation Software (GE Healthcare) program to obtain the dissociation constants KD for the different compounds with SH3 protein.
2. Experimental results and conclusions: The dissociation constants KD of different compounds and SH3 protein were described in Table 2, and the surface plasmon resonance (SPR) experimental results of some compounds were shown in FIG. 1.

In assay [2] the test system is platelets on solid phase fibrinogen. Nature of the assay: Effect of compound on platelet stretching on solid phase fibrinogen. In kind it is cell-based. As to conditions: 1 h, washed platelets, incubated 60 min at 37° C., read-out: Concentration range for compounds that inhibit platelet stretching on fibrinogen. As for the experimental part: 1. Experimental method: Firstly, 50 μl fibrinogen (0.1M, diluted with pH 8.3 sodium bicarbonate, 20 μg/ml) was added to 96-well plate, and coated overnight at 4° C. After being washed by PBS for 3 times in the morning, sealed with bovine serum albumin (20 mg/ml) at 37° C. for 60 min, then 100 μl of washed platelet suspension was taken, and added into compounds in each group to make the final concentration 250 μM, and incubated at 37° C. for 60 min. 50 μl of incubated platelets were added to 96-well plate, adhered in a temperature box at 37° C. for 60 min, unadhered platelets were removed by PBS washing for 3 times, and adhered platelets were stably fixed with 4% paraformaldehyde, and washed with PBS for 3 times. Then the platelet membrane was perforated with 0.5% Triton X-100, and then the platelet was stained with 0.5 μg/ml phalloidin-rhodamine for 60 min at 37° C. and washed 3 times (10 min each) with PBS.
2. Experimental results and conclusions: The concentration of different compounds on platelet stretching on fibrinogen was shown in Table 3, and the inhibitory effect of some compounds on platelet stretching was shown in FIG. 2.

SMILES strings stand for the structures. Some results are limits rather than exact numbers.

Src kinase SH3 domain protein, sequence (P12931 whole entry, looked up, the tested form may be a part): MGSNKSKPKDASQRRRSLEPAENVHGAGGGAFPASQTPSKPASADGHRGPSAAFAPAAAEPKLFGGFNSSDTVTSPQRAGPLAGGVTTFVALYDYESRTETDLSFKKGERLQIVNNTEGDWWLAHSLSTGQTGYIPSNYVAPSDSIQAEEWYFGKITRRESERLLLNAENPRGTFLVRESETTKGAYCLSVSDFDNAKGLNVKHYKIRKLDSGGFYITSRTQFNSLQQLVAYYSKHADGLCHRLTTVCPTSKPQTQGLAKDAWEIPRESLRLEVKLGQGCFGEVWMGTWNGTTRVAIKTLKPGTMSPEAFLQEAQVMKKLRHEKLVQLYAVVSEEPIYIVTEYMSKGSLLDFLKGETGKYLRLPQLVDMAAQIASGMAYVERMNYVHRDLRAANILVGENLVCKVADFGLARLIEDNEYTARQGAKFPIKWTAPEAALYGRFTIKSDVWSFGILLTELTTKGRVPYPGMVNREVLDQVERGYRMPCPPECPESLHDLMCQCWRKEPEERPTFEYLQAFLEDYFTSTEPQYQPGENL

As usually defined, the Kd is the constant that tells how readily two partners part at equilibrium. The low end stands for tighter binding, the high end for weaker binding. In turn, `CCOC(=O)c1c(CNC(=N)N)n(C)c2ccc(OC)nc12` [SYY-C001] showed a Kd in assay [1] of less than 1000 nM. For the same compound, the minimal effective concentration in assay [2] was 10 to 100 µM.
In the case of `CCOC(=O)c1c(CNC(=N)N)n(C)c2ncccc12` [SYY-C002], the Kd in assay [1] was in the range of 1000 to 10000 nM. In assay [2], the minimal effective concentration fell in the range of 100 to 250 µM.
The matching figures for `CCOC(=O)c1c(CNC(=N)N)n(C)c2ncc(OC)cc12` [SYY-C003]: less than 1000 nM and 10 to 100 µM.
The matching figures for `COc1ccc2c(n1)c(C#N)c(CNC(=N)N)n2C` [SYY-C004]: 1000 to 10000 nM and 100 to 250 µM.
`COc1ccc2c(n1)c(C(N)=O)c(CNC(=N)N)n2C` [SYY-C005] showed a Kd in assay [1] of 1000 to 10000 nM. Besides, in assay [2], the minimal effective concentration lay within 100 to 250 µM.
`CCOC(=O)c1c(CNC(=N)N)n(C)c2ccc(O)nc12` [SYY-C006] displayed a Kd in assay [1] of less than 1000 nM. For the same compound, the minimal effective concentration in assay [2] lay in the range of 10 to 100 µM.
The compound `CCOC(=O)c1c(CNC(=N)N)n(C)c2ccc(OC3CCCC3)nc12` [SYY-C007] gave a Kd in assay [1] of less than 1000 nM. Besides, in assay [2], the minimal effective concentration was in the range of 10 to 100 µM.
Regarding `CCOC(=O)c1c(CNC(=N)N)n(C)c2cc(Br)c(OC3CCCC3)nc12` [SYY-C008], the Kd in assay [1] lay in the range of 10000 to 100000 nM. For the same compound, the minimal effective concentration in assay [2] was in the range of 100 to 250 µM.
`CCOC(=O)c1c(CNC(=N)N)n(C)c2ncc(O)cc12` [SYY-C009] yielded a Kd in assay [1] of less than 1000 nM. The minimal effective concentration in assay [2] lay within 10 to 100 µM.
Taken in the same sequence, the figures for `CCOC(=O)c1c(CNC(=N)N)n(C)c2ncc(OC3CCCC3)cc12` [SYY-C010] were 10000 to 100000 nM and 10 to 100 µM.
`CCOC(=O)c1c(CNC(=N)N)n(C)c2cc(Br)cnc12` [SYY-C014] registered a Kd in assay [1] of less than 1000 nM. The minimal effective concentration in assay [2] lay within 10 to 100 µM.
As for `CCOC(=O)c1c(CNC(=N)N)n(C)c2cc(Br)ccc12` [SYY-C015], in assay [1], the Kd was less than 1000 nM. In addition, in assay [2], the minimal effective concentration lay in the range of 10 to 100 µM.
In assay [1], `CCOC(=O)c1c(CNC(=N)N)n(C)c2ccccc12` [SYY-C016] displayed a Kd of 10000 to 100000 nM. For the same compound, in assay [2], the minimal effective concentration was 10 to 100 µM.
Taken in the same sequence, the figures for `CCOC(=O)c1c(CNC(=N)N)n(C)c2ccc(Br)cc12` [SYY-C017] were less than 1000 nM and 10 to 100 µM.
The matching figures for `CCOC(=O)c1c(CNC(=N)N)n(C)c2nc(Cl)ccc12` [SYY-C020]: 1000 to 10000 nM and 100 to 250 µM.
Regarding `CCOC(=O)c1c(CNC(=N)N)n(C)c2cc(Br)ncc12` [SYY-C022], the Kd in assay [1] lay within 1000 to 10000 nM. Besides, the minimal effective concentration in assay [2] lay within 100 to 250 µM.
Taken in the same sequence, the figures for `CCOC(=O)c1c(CNC(=N)N)n(C)c2cc(-c3ccccc3)ccc12` [SYY-C023] were 10000 to 100000 nM and 10 to 100 µM.
Taken in the same sequence, the figures for `CCOC(=O)c1c(CNC(=N)N)n(C)c2cc(C3=CCCC3)ccc12` [SYY-C024] were less than 1000 nM and 10 to 100 µM.
Taken in the same sequence, the figures for `CCOC(=O)c1c(CNC(=N)N)n(C)c2cc(C3CCCC3)ccc12` [SYY-C025] were less than 1000 nM and 10 to 100 µM.
In assay [1], `CCOC(=O)c1c(CNC(=N)N)n(C)c2cccnc12` [SYY-C026] returned a Kd of 1000 to 10000 nM. Besides, the minimal effective concentration in assay [2] was 100 to 250 µM.
For the compound `CCOC(=O)c1c(CNC(=N)N)n(C)c2ccc(-c3ccccc3)cc12` [SYY-C028], in assay [1], the Kd is less than 1000 nM. Also, the minimal effective concentration in assay [2] lay in the range of 10 to 100 µM.
As for `CCOC(=O)c1c(CNC(=N)N)n(C)c2c1ccc1ccccc12` [SYY-C029], in assay [1], the equilibrium dissociation constant (Kd) is less than 1000 nM. In addition, the minimal effective concentration in assay [2] lay within 10 to 100 µM.
The compound `CCOC(=O)c1c(CNC(=N)N)n(-c2ccccc2)c2ccccc12` [SYY-C030] registered a Kd in assay [1] of 10000 to 100000 nM. The minimal effective concentration in assay [2] lay within 100 to 250 µM.
In assay [1], `CCOC(=O)c1c(CSC(=N)N)n(-c2ccccc2)c2ccccc12` [SYY-C031] registered a Kd of less than 1000 nM. The minimal effective concentration in assay [2] was 10 to 100 µM.
The matching figures for `CCNC(=N)NCc1c(C(=O)OCC)c2nc(OC)ccc2n1C` [SYY-C032]: less than 1000 nM and 10 to 100 µM.
Taken in the same sequence, the figures for `CCOC(=O)c1c(CNC(=N)N)n(C)c2ccncc12` [SYY-C034] were 1000 to 10000 nM and 100 to 250 µM.
Compound `CCOC(=O)c1c(CNC(=N)N)n(C)c2cnccc12` [SYY-C035] came in with an equilibrium dissociation constant (Kd) in assay [1] of 1000 to 10000 nM. Further, in assay [2], the minimal effective concentration lay in the range of 100 to 250 µM.
As to `COc1cnc2c(c1)c(C(N)=O)c(CNC(=N)N)n2C` [SYY-C036], the minimal effective concentration in assay [2] lay within 10 to 100 µM.
In assay [1], `CCOC(=O)c1c(CNC(=N)N)n(C)c2ccc(C3=CCCC3)cc12` [SYY-C037] came in with a Kd of 1000 to 10000 nM. Further, in assay [2], the minimal effective concentration fell in the range of 100 to 250 µM.
`CCOC(=O)c1c(CNC(=N)N)n(C)c2ccc(C3CCCC3)cc12` [SYY-C039]: the Kd in assay [1] is less than 1000 nM. Further, in assay [2], the minimal effective concentration is 10 to 100 µM.
Regarding `CCOC(=O)c1c(CNC(=N)N)n(C)c2cc(-c3cccc4ccccc34)ccc12` [SYY-C040], in assay [1], the Kd is less than 1000 nM. Moreover, the minimal effective concentration in assay [2] lay in the range of 10 to 100 µM.
Turning to `CCOC(=O)c1c(CNC(=N)N)n(C)c2cc(-c3ccc4ccccc4c3)ccc12` [SYY-C041], the Kd in assay [1] is 10000 to 100000 nM. Further, the minimal effective concentration in assay [2] lay within 100 to 250 µM.
Taken in the same sequence, the figures for `CCOC(=O)c1c(CSC(=N)N)n(C)c2cc(-c3cccc4ccccc34)ccc12` [SYY-C042] were 1000 to 10000 nM and 10 to 100 µM.
Taken in the same sequence, the figures for `CCOC(=O)c1c(CSC(=N)N)n(C)c2cc(-c3ccc4ccccc4c3)ccc12` [SYY-C043] were 1000 to 10000 nM and 100 to 250 µM.
The matching figures for `CCOC(=O)c1c(CSC(=N)N)n(C)c2cc(Cc3ccccc3)ccc12` [SYY-C045]: less than 1000 nM and 10 to 100 µM.
In assay [1], `CCOC(=O)c1c(CNC(=N)N)n(C)c2cc(C3=CCCCCC3)ccc12` [SYY-C046] returned a Kd of 10000 to 100000 nM. The minimal effective concentration in assay [2] was in the range of 100 to 250 µM.
`CCOC(=O)c1c(CNC(=N)N)n(C)c2cc(C3CCCCCC3)ccc12` [SYY-C047] had an equilibrium dissociation constant (Kd) in assay [1] of less than 1000 nM. The minimal effective concentration in assay [2] was 10 to 100 µM.
The matching figures for `CCOC(=O)c1c(CNC(=N)N)n(C)c2cc(C3=CCCCC3)ccc12` [SYY-C048]: 10000 to 100000 nM and 10 to 100 µM.
Taken in the same sequence, the figures for `CCOC(=O)c1c(CNC(=N)N)n(C)c2cc(C3CCCCC3)ccc12` [SYY-C049] were less than 1000 nM and 10 to 100 µM.
Taken in the same sequence, the figures for `CCOC(=O)c1c(CSC(=N)N)n(C)c2cc(C3CCCCC3)ccc12` [SYY-C050] were less than 1000 nM and 10 to 100 µM.
`CCOC(=O)c1c(CSC(=N)N)n(C)c2cc(C3=CCCCC3)ccc12` [SYY-C051] returned a Kd in assay [1] of 1000 to 10000 nM. The minimal effective concentration in assay [2] was 100 to 250 µM.
The compound `CCOC(=O)c1c(CSC(=N)N)n(C)c2cc(C3=CCCCCC3)ccc12` [SYY-C052] gave a Kd in assay [1] of 1000 to 10000 nM. Further, the minimal effective concentration in assay [2] is 100 to 250 µM.
The matching figures for `CCOC(=O)c1c(CSC(=N)N)n(C)c2cc(C3CCCCCC3)ccc12` [SYY-C053]: less than 1000 nM and 10 to 100 µM.
For the compound `CCOC(=O)c1c(CNC(=N)N)n(C)c2cc(C3CC4CCC3C4)ccc12` (stereo not drawn) [SYY-C069], in assay [2], the minimal effective concentration was in the range of 10 to 100 µM.
In the case of `CCOC(=O)c1c(CNC(=N)N)n(C)c2cc(-c3cccc4ccc(F)cc34)ccc12` [SYY-C094], in assay [1], the dissociation constant Kd was less than 1000 nM.
